Columns and labels:
[1] = biological target: T1, hERG potassium channels (KCNH2 gene, expressed in CHO cells) (Homo sapiens, UniProt Q12809); experiment: Ability to block hERG potassium channel (electrophysiology, IonWorks Quattro); assay type: cell-based; conditions: cloned hERG in CHO cells; test pulse +40 mV; concentration not given
T1 construct: expressed in transfected cells; host or cells: CHO cells
Procedure: Ability to Block hERG Potassium Channel Ability to block hERG potassium channels was determined using the electrophysiological method and cloned hERG potassium channels (KCNH2 gene, expressed in CHO cells) as biological material. The effects were evaluated using IonWorks™ Quattro system (MDS-AT).
hERG current was elicited using a pulse pattern with fixed amplitudes (conditioning pre-pulse: −80 mV for 25 ms; test pulse: +40 mV for 80 ms) from a holding potential of 0 mV. hERG current was measured as a difference between the peak current at 1 ms after the test step to +40 mV and the steady-state current at the end of the step to +40 mV.
Data acquisition and analyses were performed using the lonWorks Quattro™ system operation software (version 2.0.2; Molecular Devices Corporation, Union City, Calif.). Data were corrected for leak current.
The hERG block was calculated as: % Block=(1−I TA/IControl)×100%, where IControl and ITA were the currents elicited by the test pulse in control and in the presence of a test compound, respectively.

[2] = system: Male CD-1 mice; experiment: d-Amphetamine-induced locomotor hyperactivity in mice; assay type: in vivo; conditions: compound i.p., d-amphetamine s.c., immediately before the test, ambulation counted during 2 h
Procedure: Potential antipsychotic activity was tested for the representative compound 60 in mouse model of psychosis, involving the induction of locomotor hyperactivity by administering psychotomimetic substance—d-amphetamine. The ability of a test compound to remove that effect is a measure of potential antipsychotic activity.
Male CD-1 mice weighing 20-22 g derived from accredited animal facility localized at Medical College of Jagiellonian University were group-housed for 3-4 day period in polycarbonate Makrolon type 3 cages (dimensions 26.5×15×42 cm) in an environmentally controlled, experimental room (ambient temperature 22-20C; relative humidity 50-60%; 12:12 light:dark cycle, lights on at 8:00), in groups of 15. Standard laboratory food (Morigram, Agropol) and filtered water were freely available. On the day before experiments the equipment produces “white noise” was turned on for 30 minutes and mice or rats were weighted exact to 1 g. Animals were assigned randomly to treatment groups. […]
The locomotor activity was recorded with an Opto M3 multi-channel activity monitor (MultiDevice Software v.1.3, Columbus Instruments). Mice were individually placed in plastic cages (22×12×13 cm) and then the crossings of each channel (ambulation) were counted during 2 h with data recording every 5 minutes. […]

[3] = biological target: T2, D3 (h) (Homo sapiens, UniProt P35462); experiment: Radioligand binding assay, dopaminergic receptor D3; conditions: test compound 1×10^−6M; [3H]methyl-spiperone; human recombinant (CHO cells)
T2 construct: expressed in transfected cells; host or cells: CHO cells
T2 sequence (P35462 whole entry): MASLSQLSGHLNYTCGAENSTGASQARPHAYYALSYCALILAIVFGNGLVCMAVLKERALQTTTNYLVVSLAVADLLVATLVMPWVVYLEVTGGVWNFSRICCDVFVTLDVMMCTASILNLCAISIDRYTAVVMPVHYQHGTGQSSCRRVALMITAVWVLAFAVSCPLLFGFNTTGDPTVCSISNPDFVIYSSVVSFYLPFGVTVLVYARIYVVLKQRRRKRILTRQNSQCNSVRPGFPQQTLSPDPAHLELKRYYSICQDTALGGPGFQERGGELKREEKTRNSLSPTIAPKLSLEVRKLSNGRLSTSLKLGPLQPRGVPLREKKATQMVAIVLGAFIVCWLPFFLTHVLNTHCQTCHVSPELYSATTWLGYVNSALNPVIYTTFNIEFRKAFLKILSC
Procedure: (§1) Specific ligand binding to the receptors is defined as the difference between the total binding and the non-specific binding determined in the presence of an excess of unlabelled ligand.
(§2) The results are expressed as a percent of control specific binding ((measured specific binding/control specific binding)×100%) obtained in the presence of the test compounds. The compounds were tested for their affinity to receptors at a concentration of 1×10^−6M.
(§3) Conditions and methodology of in vitro tests are given by reference to the literature in Table 1, and the results of tests for representative compounds are given in Table 2 (dopaminergic receptors D2 and D3), in Table 3 (dopaminergic receptors D1 and D4.4), in Table 4 (serotoninergic receptors 5-HT1A, 5-HT2A, 5-HT6, 5-HT7), in table 5 (serotoninergic receptors 5-HT2C), in Table 6 (sigma o receptors), in Table 7 (adrenergic receptors α1, histaminergic receptors H1 and muscarinic receptors M3), in Table 8 (adrenergic receptors α2C) and in Table 9 (serotonin transporter receptors SERT).

[4] = biological target: T3, 5-HT2A (h) (Homo sapiens, UniProt P28223); experiment: Radioligand binding assay, serotoninergic receptor 5-HT2A; conditions: test compound 1×10^−6M; [3H]ketanserin; human recombinant (HEK-293 cells)
T3 construct: expressed in transfected cells; host or cells: HEK-293 cells
T3 sequence (P28223 whole entry): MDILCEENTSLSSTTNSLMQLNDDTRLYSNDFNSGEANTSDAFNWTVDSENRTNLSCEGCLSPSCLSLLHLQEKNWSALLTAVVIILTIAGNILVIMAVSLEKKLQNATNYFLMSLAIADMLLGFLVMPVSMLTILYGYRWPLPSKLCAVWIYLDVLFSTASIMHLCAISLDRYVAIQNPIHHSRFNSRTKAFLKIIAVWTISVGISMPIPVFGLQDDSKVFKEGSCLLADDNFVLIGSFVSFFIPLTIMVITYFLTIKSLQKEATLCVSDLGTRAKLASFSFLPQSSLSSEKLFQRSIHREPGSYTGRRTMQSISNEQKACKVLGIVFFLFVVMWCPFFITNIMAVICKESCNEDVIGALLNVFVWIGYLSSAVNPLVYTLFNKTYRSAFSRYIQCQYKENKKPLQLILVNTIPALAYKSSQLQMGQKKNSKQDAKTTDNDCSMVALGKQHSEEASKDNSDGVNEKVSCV
Procedure: as §1, §2, §3

[5] = system: α1 (non-selective); experiment: Radioligand binding assay, adrenergic α1 receptors; conditions: test compound 1×10^−6M; [3H]prazosin; rat cerebral cortex
Procedure: as §1, §2, §3

[6] = biological target: T4, M3 (h) (Homo sapiens, UniProt P20309); experiment: Radioligand binding assay, muscarinic M3 receptor; conditions: test compound 1×10^−6M; [3H]4-DAMP; human recombinant (CHO cells)
T4 construct: expressed in transfected cells; host or cells: CHO cells
T4 sequence (P20309 whole entry): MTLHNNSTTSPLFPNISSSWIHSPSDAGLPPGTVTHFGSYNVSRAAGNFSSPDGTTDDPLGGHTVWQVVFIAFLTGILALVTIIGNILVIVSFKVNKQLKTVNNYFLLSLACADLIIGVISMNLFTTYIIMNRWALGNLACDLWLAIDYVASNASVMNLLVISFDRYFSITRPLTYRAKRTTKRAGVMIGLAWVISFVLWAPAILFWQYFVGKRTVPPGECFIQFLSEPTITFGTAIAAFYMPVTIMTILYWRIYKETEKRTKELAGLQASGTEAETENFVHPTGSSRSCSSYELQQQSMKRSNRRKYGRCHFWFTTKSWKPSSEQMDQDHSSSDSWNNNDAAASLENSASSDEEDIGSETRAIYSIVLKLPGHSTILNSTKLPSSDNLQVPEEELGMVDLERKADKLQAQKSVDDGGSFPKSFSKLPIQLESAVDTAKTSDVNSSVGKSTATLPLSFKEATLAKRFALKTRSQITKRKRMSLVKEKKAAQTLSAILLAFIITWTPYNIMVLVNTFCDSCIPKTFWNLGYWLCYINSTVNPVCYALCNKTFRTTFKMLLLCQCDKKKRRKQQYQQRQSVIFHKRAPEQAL
Procedure: as §1, §2, §3

[7] = biological target: T5, 5-HT7 (h) (Homo sapiens, UniProt P34969); experiment: Radioligand binding assay, serotoninergic receptor 5-HT7; conditions: test compound 1×10^−6M; [3H]LSD; human recombinant (CHO cells)
T5 construct: expressed in transfected cells; host or cells: CHO cells
T5 sequence (P34969 whole entry): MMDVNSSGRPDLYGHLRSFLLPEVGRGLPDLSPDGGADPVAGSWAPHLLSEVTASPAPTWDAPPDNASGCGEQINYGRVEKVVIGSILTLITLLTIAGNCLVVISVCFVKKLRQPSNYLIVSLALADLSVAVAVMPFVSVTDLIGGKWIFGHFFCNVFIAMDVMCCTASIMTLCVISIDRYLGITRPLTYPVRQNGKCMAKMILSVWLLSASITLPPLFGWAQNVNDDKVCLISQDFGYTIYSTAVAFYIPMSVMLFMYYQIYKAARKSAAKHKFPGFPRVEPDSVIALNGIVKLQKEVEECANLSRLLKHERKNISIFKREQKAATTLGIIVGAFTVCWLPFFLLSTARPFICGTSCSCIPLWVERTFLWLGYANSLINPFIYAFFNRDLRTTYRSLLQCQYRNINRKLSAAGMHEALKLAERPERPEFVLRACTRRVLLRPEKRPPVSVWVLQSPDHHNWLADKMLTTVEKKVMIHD
Procedure: as §1, §2, §3

[8] = biological target: T6, D1 (h) (Homo sapiens, UniProt P21728); experiment: Radioligand binding assay, dopaminergic receptor D1; conditions: test compound 1×10^−6M; [3H]SCH 23390; human recombinant (CHO cells)
T6 construct: expressed in transfected cells; host or cells: CHO cells
T6 sequence (P21728 whole entry): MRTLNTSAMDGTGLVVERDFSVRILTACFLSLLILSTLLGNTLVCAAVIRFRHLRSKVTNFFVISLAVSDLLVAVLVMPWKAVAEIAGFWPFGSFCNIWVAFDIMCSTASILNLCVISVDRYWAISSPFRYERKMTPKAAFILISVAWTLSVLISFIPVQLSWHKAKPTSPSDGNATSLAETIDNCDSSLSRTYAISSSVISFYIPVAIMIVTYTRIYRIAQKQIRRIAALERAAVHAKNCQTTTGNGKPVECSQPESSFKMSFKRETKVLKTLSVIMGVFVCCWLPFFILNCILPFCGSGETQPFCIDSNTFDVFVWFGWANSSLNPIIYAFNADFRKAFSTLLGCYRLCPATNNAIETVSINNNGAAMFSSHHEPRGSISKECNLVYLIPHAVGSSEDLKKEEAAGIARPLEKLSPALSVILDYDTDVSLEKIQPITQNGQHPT
Procedure: as §1, §2, §3

[9] = biological target: T7, 5-HT1A (h) (Homo sapiens, UniProt P08908); experiment: Radioligand binding assay, serotoninergic receptor 5-HT1A; conditions: test compound 1×10^−6M; [3H]8-OH-DPAT; human recombinant (HEK-293 cells)
T7 construct: expressed in transfected cells; host or cells: HEK-293 cells
T7 sequence (P08908 1-422): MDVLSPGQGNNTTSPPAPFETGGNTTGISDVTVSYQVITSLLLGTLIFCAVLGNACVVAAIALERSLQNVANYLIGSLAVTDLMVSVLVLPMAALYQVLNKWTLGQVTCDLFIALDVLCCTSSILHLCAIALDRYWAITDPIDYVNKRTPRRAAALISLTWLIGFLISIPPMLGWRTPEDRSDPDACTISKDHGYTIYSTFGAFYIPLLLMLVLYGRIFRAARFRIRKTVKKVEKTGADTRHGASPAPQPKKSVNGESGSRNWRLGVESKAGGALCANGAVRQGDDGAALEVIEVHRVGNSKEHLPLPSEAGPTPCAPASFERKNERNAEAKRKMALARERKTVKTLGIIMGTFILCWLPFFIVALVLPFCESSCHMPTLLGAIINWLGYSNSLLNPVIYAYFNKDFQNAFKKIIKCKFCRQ
Procedure: as §1, §2, §3

[10] = biological target: T8, H1 (h) (Homo sapiens, UniProt P35367); experiment: Radioligand binding assay, histaminergic H1 receptor; conditions: test compound 1×10^−6M; [3H]pyrilamine; human recombinant (HEK-293 cells)
T8 construct: expressed in transfected cells; host or cells: HEK-293 cells
T8 sequence (P35367 whole entry): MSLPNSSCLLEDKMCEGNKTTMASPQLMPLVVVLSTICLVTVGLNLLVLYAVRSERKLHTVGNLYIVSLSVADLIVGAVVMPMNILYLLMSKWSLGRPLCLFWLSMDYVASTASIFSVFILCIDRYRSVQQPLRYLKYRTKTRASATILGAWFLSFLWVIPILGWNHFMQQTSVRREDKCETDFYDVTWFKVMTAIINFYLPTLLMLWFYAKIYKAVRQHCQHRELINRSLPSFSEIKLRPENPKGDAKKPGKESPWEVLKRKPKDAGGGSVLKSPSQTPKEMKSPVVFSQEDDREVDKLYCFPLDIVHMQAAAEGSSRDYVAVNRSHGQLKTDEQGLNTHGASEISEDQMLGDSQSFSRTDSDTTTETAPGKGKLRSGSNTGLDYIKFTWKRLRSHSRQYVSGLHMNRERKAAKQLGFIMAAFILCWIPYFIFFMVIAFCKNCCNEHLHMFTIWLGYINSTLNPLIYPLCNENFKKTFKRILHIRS
Procedure: as §1, §2, §3

[11] = biological target: T9, SERT (h) (Homo sapiens, UniProt P31645); experiment: Radioligand binding assay, serotonin transporter (SERT); conditions: test compound 1×10^−6M; [3H]imipramine; human recombinant (CHO cells)
T9 construct: expressed in transfected cells; host or cells: CHO cells
T9 sequence (P31645 whole entry): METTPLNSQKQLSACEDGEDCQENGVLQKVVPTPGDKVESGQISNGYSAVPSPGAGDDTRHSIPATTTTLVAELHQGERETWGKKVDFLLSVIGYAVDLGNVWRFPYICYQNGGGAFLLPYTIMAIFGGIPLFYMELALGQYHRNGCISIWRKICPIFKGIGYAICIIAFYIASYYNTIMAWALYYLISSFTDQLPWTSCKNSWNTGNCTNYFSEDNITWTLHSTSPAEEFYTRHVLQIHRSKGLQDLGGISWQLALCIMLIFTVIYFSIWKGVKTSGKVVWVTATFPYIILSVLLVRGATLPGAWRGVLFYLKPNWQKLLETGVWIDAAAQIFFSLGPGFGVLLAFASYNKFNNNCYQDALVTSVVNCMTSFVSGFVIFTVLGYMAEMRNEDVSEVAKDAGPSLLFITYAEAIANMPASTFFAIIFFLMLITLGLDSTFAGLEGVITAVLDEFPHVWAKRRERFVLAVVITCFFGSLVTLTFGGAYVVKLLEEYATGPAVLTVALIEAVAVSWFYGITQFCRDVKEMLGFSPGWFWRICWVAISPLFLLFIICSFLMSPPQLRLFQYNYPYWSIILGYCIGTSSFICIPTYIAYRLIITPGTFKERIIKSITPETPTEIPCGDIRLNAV
Procedure: as §1, §2, §3

[12] = biological target: T10, 5-HT6 (h) (Homo sapiens, UniProt P50406); experiment: Radioligand binding assay, serotoninergic receptor 5-HT6; conditions: test compound 1×10^−6M; [3H]LSD; human recombinant (CHO cells)
T10 construct: expressed in transfected cells; host or cells: CHO cells
T10 sequence (P50406 whole entry): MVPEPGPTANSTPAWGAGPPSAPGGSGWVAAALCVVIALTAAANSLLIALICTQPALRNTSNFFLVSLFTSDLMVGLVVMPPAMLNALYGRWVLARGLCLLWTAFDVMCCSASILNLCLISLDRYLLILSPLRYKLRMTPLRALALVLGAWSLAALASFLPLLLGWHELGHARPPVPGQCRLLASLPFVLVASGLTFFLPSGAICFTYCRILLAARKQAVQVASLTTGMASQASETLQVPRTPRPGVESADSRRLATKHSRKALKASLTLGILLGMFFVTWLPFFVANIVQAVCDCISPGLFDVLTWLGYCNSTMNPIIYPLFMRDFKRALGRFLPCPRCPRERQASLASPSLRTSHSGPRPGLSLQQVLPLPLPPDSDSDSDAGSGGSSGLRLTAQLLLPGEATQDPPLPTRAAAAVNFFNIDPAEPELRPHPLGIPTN
Procedure: as §1, §2, §3

[13] = biological target: T11, α2C (h) (Homo sapiens, UniProt P18825); experiment: Radioligand binding assay, adrenergic receptor α2C; conditions: test compound 1×10^−6M; [3H]RX 821002; human recombinant (CHO cells)
T11 construct: expressed in transfected cells; host or cells: CHO cells
T11 sequence (P18825 1-462): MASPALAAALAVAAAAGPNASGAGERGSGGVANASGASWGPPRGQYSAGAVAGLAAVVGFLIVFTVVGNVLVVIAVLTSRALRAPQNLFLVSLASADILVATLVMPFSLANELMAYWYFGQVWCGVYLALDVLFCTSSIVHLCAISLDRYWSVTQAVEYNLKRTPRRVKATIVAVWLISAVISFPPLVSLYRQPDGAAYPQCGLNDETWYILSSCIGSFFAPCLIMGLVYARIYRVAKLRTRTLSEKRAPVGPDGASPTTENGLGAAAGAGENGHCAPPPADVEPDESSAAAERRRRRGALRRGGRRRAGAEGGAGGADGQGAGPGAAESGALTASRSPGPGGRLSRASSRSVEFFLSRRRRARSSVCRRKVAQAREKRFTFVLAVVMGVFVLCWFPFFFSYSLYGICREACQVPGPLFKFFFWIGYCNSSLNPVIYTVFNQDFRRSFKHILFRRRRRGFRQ
Procedure: as §1, §2, §3

[14] = biological target: T12, 5-HT2C (h) (Homo sapiens, UniProt P28335); experiment: Radioligand binding assay, serotoninergic receptor 5-HT2C; conditions: test compound 1×10^−6M; [3H]mesulergine; human recombinant (HEK-293 cells)
T12 construct: expressed in transfected cells; host or cells: HEK-293 cells
T12 sequence (P28335 33-458): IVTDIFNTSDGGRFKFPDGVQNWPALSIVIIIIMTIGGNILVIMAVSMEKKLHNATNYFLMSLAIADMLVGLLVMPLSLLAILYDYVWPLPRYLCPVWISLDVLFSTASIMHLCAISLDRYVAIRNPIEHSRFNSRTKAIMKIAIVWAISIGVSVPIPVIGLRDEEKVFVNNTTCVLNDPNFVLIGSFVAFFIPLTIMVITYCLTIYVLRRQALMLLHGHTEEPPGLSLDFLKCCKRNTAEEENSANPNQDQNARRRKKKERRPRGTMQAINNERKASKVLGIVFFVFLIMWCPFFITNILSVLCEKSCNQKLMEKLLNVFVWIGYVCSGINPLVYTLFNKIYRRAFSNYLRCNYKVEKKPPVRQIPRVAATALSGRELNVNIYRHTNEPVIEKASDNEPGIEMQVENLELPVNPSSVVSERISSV
Procedure: as §1, §2, §3

[15] = biological target: T13, D4.4 (h) (Homo sapiens, UniProt P21917); experiment: Radioligand binding assay, dopaminergic receptor D4.4; conditions: test compound 1×10^−6M; [3H]methyl-spiperone; human recombinant (CHO cells)
T13 construct: expressed in transfected cells; host or cells: CHO cells
T13 sequence (P21917 1-419): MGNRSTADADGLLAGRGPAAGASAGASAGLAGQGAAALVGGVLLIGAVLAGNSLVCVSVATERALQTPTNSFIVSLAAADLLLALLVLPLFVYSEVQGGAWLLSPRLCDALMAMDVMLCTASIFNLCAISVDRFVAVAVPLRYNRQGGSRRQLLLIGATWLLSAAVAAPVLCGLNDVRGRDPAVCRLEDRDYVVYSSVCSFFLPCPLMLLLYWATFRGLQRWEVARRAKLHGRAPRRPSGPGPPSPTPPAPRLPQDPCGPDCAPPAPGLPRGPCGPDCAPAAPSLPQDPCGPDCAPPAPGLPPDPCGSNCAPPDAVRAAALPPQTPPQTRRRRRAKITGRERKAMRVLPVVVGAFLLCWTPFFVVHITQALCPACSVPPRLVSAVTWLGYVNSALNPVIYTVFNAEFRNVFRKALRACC
Procedure: as §1, §2, §3

[16] = biological target: T14, D2S (h) (Homo sapiens, UniProt P14416); experiment: Radioligand binding assay, dopaminergic receptor D2; conditions: test compound 1×10^−6M; [3H]methyl-spiperone; human recombinant (HEK-293 cells)
T14 construct: expressed in transfected cells; host or cells: HEK-293 cells
T14 sequence (P14416 1-414 isoform P14416-2): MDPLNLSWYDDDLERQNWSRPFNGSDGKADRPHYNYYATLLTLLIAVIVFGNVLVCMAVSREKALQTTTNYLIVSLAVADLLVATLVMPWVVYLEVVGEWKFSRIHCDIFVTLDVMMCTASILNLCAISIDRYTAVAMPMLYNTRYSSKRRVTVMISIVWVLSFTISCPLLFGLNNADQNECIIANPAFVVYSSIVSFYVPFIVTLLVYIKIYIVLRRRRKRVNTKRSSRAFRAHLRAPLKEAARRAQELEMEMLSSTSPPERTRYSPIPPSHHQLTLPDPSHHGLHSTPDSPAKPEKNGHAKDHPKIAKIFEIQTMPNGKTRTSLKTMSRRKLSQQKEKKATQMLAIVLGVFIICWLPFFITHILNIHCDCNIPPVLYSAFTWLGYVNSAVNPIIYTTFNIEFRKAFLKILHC
Procedure: as §1, §2, §3

[17] = system: σ (non-selective); experiment: Radioligand binding assay, σ receptors; conditions: test compound 1×10^−6M; [3H]DTG; rat cerebral cortex
Procedure: as §1, §2, §3

Molecule: CN(CCCc1noc2cc(F)ccc12)Cc1cccc(NS(=O)(=O)c2ccccc2)c1 [Compound 60, N-[3-[[3-(6-fluoro-1,2-benzoxazol-3-yl)propylmethylamino]methyl]phenyl]benzenesulphonamide]
- hERG [%] (% Block) [1]: 6%
- MED (Minimum Effective Dose) [2]: 10 mg/kg

Molecule: CN(CCCc1noc2cc(F)ccc12)Cc1cccc(NS(=O)(=O)c2ccc(C(C)(C)C)cc2)c1 [Compound 72, 4-tert-butylo-N-[3-[[3-(6-fluoro-1,2-benzoxazol-3-yl)propylmethylamino]methyl]-phenyl]benzenesulphonamide]
- D3 [%] [3]: 63%
- 5-HT2A [%] [4]: 87%
- α1 [%] [5]: 77%
- M3 [%] [6]: 25%
- 5-HT7 [%] [7]: 93%
- D1 [%] [8]: 45%
- 5-HT1A [%] [9]: 30%
- H1 [%] [10]: 64%
- SERT [%] [11]: 42%
- 5-HT6 [%] [12]: 99%
- α2C [%] [13]: 81%
- 5-HT2C [%] [14]: 23%
- D4.4 [%] [15]: 60%
- D2 [%] [16]: 93%
- σ [%] [17]: 80%

Molecule: N-[3-[[3-(6-fluoro-1,2-benzoxazol-3-yl)propylamino]methyl]phenyl]naphthalene-1-sulphonamide [Compound 54]
- D3 [%] [3]: 76%
- 5-HT2A [%] [4]: 80%
- α1 [%] [5]: 48%
- M3 [%] [6]: 2%
- 5-HT7 [%] [7]: 90%
- D1 [%] [8]: 27%
- 5-HT1A [%] [9]: 43%
- H1 [%] [10]: 7%
- SERT [%] [11]: 42%
- 5-HT6 [%] [12]: 88%
- α2C [%] [13]: 32%
- 5-HT2C [%] [14]: 17%
- D4.4 [%] [15]: 54%
- D2 [%] [16]: 94%
- σ [%] [17]: 50%

From patent US20150051257A1, “SULPHONAMIDE DERIVATIVES OF BENZYLAMINE FOR THE TREATMENT OF CNS DISEASES” (ADAMED SP. Z O.O, priority 2012, published 2015)
